Target: human insulin (hINS) (Homo sapiens, UniProt P01308)
Assay: isothermal titration calorimetry
Assay type: binding

Chain of human insulin (hINS) (P01308 25-54): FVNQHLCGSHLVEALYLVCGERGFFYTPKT
Chain of human insulin (hINS) (P01308 90-110): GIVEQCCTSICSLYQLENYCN

Which Kd does the source give for `Oc1ccc(/C=C/c2cc(O)cc(O)c2)cc1` [resveratrol, trans-3,4,5-trihydroxystilbene] here?
The Kd was 12.8 µM.

Source: paper doi:10.1101/611376v1 (biorxiv, 2019)
